Measurements from PMC6001238, “Iterative Chemical Engineering of Vancomycin Leads to Novel Vancomycin Analogs With a High in Vitro Therapeutic Index” (Frontiers in Microbiology, 2018).
Converted amounts (≈) assume the structure as drawn.

Assays:
[1] = test system: E. faecalis VSE 1; test: MIC, broth microdilution, vancomycin-sensitive E. faecalis (VSE 1); type: cell-based, Enterococcus faecalis; details: for MIC: Enterococcus faecalis VSE 1 (vancomycin-sensitive), read-out: MIC; for MIC-fold improvement vs. vancomycin: VSE 1, ratio of MIC of vancomycin and MIC of analogue
Procedure, shortened: (§1)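 Susceptibility was scored by broth microdilution (CLSI). In one instance each vancomycin analog or control antibiotic was tested in the presence of vancomycin, 10 μM final, and ultrapure water plus non-inoculated broth were included as controls.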

[2] = test system: E. faecalis VRE 6; test: MIC, broth microdilution, vancomycin-resistant E. faecalis VRE 6 (VanA); type: cell-based, Enterococcus faecalis; details: for MIC: Enterococcus faecalis VRE 6 (vancomycin-resistant), read-out: MIC; for MIC-fold improvement vs. vancomycin: VRE 6, ratio of MIC of vancomycin and MIC of analogue
Procedure, shortened: as §1

[3] = test system: E. faecalis VRE 53; test: MIC, broth microdilution, vancomycin-resistant E. faecalis VRE 53 (VanA); type: cell-based, Enterococcus faecalis; details: for MIC: Enterococcus faecalis VRE 53 (vancomycin-resistant), read-out: MIC; for MIC-fold improvement vs. vancomycin: VRE 53, ratio of MIC of vancomycin and MIC of analogue
Procedure, shortened: as §1

[4] = test system: E. faecalis VRE 29; test: MIC, broth microdilution, vancomycin-resistant E. faecalis VRE 29 (VanA); type: cell-based, Enterococcus faecalis; details: for MIC: Enterococcus faecalis VRE 29 (vancomycin-resistant), read-out: MIC; for MIC-fold improvement vs. vancomycin: VRE 29, ratio of MIC of vancomycin and MIC of analogue
Procedure, shortened: as §1

[5] = test system: E. faecalis VRE 37; test: MIC, broth microdilution, vancomycin-resistant E. faecalis VRE 37 (VanA); type: cell-based, Enterococcus faecalis; details: for MIC: Enterococcus faecalis VRE 37 (vancomycin-resistant), read-out: MIC; for MIC-fold improvement vs. vancomycin: VRE 37, ratio of MIC of vancomycin and MIC of analogue
Procedure, shortened: as §1

[6] = test system: Murine leukemia (L1210) cells; test: Cytostatic activity, L1210 cell proliferation; type: cell-based; details: mean ± SD of three experiments; highest concentration tested 250 µM; 2 days; read-out: Toxicity (IC50) L1210
Procedure, shortened: (§2)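 Suspensions (300,000–500,000 cells/mL) combined with equal volumes of diluted compound; 37°C; L1210 2 d / CEM 3 d / HeLa 4 d; counted by Coulter counter; IC50 vs untreated wells.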

[7] = test system: human T-lymphocyte (CEM) cells; test: Cytostatic activity, CEM cell proliferation; type: cell-based; details: mean ± SD of three experiments; highest concentration tested 250 µM; 3 days; read-out: Toxicity (IC50) CEM
Procedure, shortened: as §2

[8] = test system: human cervix carcinoma (HeLa) cells; test: Cytostatic activity, HeLa cell proliferation; type: cell-based; details: mean ± SD of three experiments; highest concentration tested 250 µM; 4 days; read-out: Toxicity (IC50) HeLa
Procedure, shortened: as §2

[9] = test system: L1210, CEM and HeLa cell lines; test: Cytostatic activity, average or summary over L1210, CEM and HeLa; type: cell-based; details: average of L1210, CEM and HeLa; read-out: Toxicity (IC50) Average
Procedure, shortened: as §2

[10] = test system: S. aureus VSSA (ATCC 6538); test: MIC, broth microdilution, vancomycin-sensitive S. aureus (VSSA/MSSA, ATCC 6538); type: cell-based, Staphylococcus aureus; details: for MIC: Staphylococcus aureus VSSA, read-out: MIC; for MIC-fold improvement vs. vancomycin: VSSA, ratio of MIC of vancomycin and MIC of analogue
Procedure, shortened: as §1

[11] = test system: S. aureus VISA/HIP5827; test: MIC, broth microdilution, vancomycin-intermediate S. aureus VISA HIP5827; type: cell-based, Staphylococcus aureus; details: for MIC: Staphylococcus aureus VISA/HIP5827, read-out: MIC; for MIC-fold improvement vs. vancomycin: VISA/HIP5827, ratio of MIC of vancomycin and MIC of analogue
Procedure, shortened: as §1

[12] = test system: S. aureus VRSA; test: MIC, broth microdilution, vancomycin-resistant S. aureus (VRSA); type: cell-based, Staphylococcus aureus; details: for MIC: Staphylococcus aureus VRSA, read-out: MIC; for MIC-fold improvement vs. vancomycin: VRSA, ratio of MIC of vancomycin and MIC of analogue
Procedure, shortened: as §1

[13] = test system: MRSA KS2; test: MIC, broth microdilution, MRSA KS2; type: cell-based, Staphylococcus aureus; details: for MIC-fold improvement vs. vancomycin: MRSA KS2, ratio of MIC of vancomycin and MIC of analogue; for MIC: Staphylococcus aureus MRSA KS2, read-out: MIC
Procedure, shortened: as §1

[14] = test system: MRSA KS6; test: MIC, broth microdilution, MRSA KS6; type: cell-based, Staphylococcus aureus; details: for MIC-fold improvement vs. vancomycin: MRSA KS6, ratio of MIC of vancomycin and MIC of analogue; for MIC: Staphylococcus aureus MRSA KS6, read-out: MIC
Procedure, shortened: as §1

[15] = test system: MRSA KS89; test: MIC, broth microdilution, MRSA KS89; type: cell-based, Staphylococcus aureus; details: for MIC-fold improvement vs. vancomycin: MRSA KS8, ratio of MIC of vancomycin and MIC of analogue; for MIC: Staphylococcus aureus MRSA KS8, read-out: MIC
Procedure, shortened: as §1

[16] = test system: MRSA KS1; test: MIC, broth microdilution, MRSA KS1; type: cell-based, Staphylococcus aureus; details: for MIC-fold improvement vs. vancomycin: MRSA KS1, ratio of MIC of vancomycin and MIC of analogue; for MIC: Staphylococcus aureus MRSA KS1, read-out: MIC
Procedure, shortened: as §1

SMILES | MIC [1] [µM] | MIC-fold improvement vs. vancomycin [1] | MIC [2] [µM] | MIC-fold improvement vs. vancomycin [2] | MIC [3] [µM] | MIC-fold improvement vs. vancomycin [3] | MIC [4] [µM] | MIC [5] [µM] | MIC-fold improvement vs. vancomycin [5] | IC50 [6] [µM] | IC50 [7] [µM] | IC50 [8] [µM] | IC50 [9] [µM] | MIC [10] [µM] | MIC-fold improvement vs. vancomycin [10] | MIC [11] [µM] | MIC-fold improvement vs. vancomycin [11] | MIC [12] [µM] | MIC-fold improvement vs. vancomycin [12] | MIC-fold improvement vs. vancomycin [13] | further results
CN[C@H](CC(C)C)C(=O)N[C@H]1C(=O)N[C@@H](CC(N)=O)C(=O)N[C@H]2C(=O)N[C@H]3C(=O)N[C@H](C(=O)N[C@H](C(=O)NCC(=O)Nc4ccc(-c5cn(-c6ccccc6)nn5)cc4)c4cc(O)cc(O)c4-c4cc3ccc4O)[C@H](O)c3ccc(c(Cl)c3)Oc3cc2cc(c3O[C@@H]2O[C@H](CO)[C@@H](O)[C@H](O)[C@H]2O[C@H]2C[C@](C)(N)[C@H](O)[C@H](C)O2)Oc2ccc(cc2Cl)[C@H]1O [Vanc-77] | 0.39 (≈ 0.673 µg/mL) | 4 | 1.56 (≈ 2.69 µg/mL) | 128 | 6.25 (≈ 10.8 µg/mL) | 64 | 6.25 (≈ 10.8 µg/mL) | 6.25 (≈ 10.8 µg/mL) | 64 | 192 ± 101 | 26 ± 1 | 58 ± 7 | 92 | 0.39 (≈ 0.673 µg/mL) | 2 | 0.78 (≈ 1.35 µg/mL) | 8 | 0.78 (≈ 1.35 µg/mL) | 128 | 4 | MIC-fold improvement vs. vancomycin [4]: 64; MIC [13]: 0.20 µM (≈ 0.345 µg/mL); MIC-fold improvement vs. vancomycin [14]: 4; MIC [14]: 0.20 µM (≈ 0.345 µg/mL); MIC-fold improvement vs. vancomycin [15]: 4; MIC [15]: 0.20 µM (≈ 0.345 µg/mL); MIC-fold improvement vs. vancomycin [16]: >8; MIC [16]: <0.10 µM
CNC(CC(C)C)C(=O)NC1C(=O)NC(CC(N)=O)C(=O)NC2C(=O)NC3C(=O)NC(C(=O)NC(C(=O)NCC(=O)Nc4ccc(-c5ccc(Cl)cc5)cc4)c4cc(O)cc(O)c4-c4cc3ccc4O)C(O)c3ccc(c(Cl)c3)Oc3cc2cc(c3OC2OC(CO)C(O)C(O)C2OC2CC(C)(N)C(O)C(C)O2)Oc2ccc(cc2Cl)C1O (centres unmarked) [Vanc-84] | ≤0.05 | ≥32 | 0.78 (≈ 1.32 µg/mL) | 256 | 3.13 (≈ 5.3 µg/mL) | 128 | 0.78 (≈ 1.32 µg/mL) | 3.13 (≈ 5.3 µg/mL) | 128 | 1.5 ± 0.1 | 1.6 ± 0.9 | 13 | 5 | 0.10 (≈ 0.169 µg/mL) | 8 | 0.39 (≈ 0.66 µg/mL) | 16 | 0.78 (≈ 1.32 µg/mL) | 128 | 8 | MIC-fold improvement vs. vancomycin [4]: 512; MIC [13]: 0.10 µM (≈ 0.169 µg/mL); MIC-fold improvement vs. vancomycin [14]: 4; MIC [14]: 0.20 µM (≈ 0.338 µg/mL); MIC-fold improvement vs. vancomycin [15]: 4; MIC [15]: 0.20 µM (≈ 0.338 µg/mL); MIC-fold improvement vs. vancomycin [16]: 8; MIC [16]: 0.10 µM (≈ 0.169 µg/mL)
CNC(CC(C)C)C(=O)NC1C(=O)NC(CC(N)=O)C(=O)NC2C(=O)NC3C(=O)NC(C(=O)NC(C(=O)NCC(=O)Nc4ccc(-c5ccc(C(C)=O)cc5)cc4)c4cc(O)cc(O)c4-c4cc3ccc4O)C(O)c3ccc(c(Cl)c3)Oc3cc2cc(c3OC2OC(CO)C(O)C(O)C2OC2CC(C)(N)C(O)C(C)O2)Oc2ccc(cc2Cl)C1O (centres unmarked) [Vanc-85] | ≤0.05 | ≥32 | 0.78 (≈ 1.33 µg/mL) | 256 | 12.5 (≈ 21.2 µg/mL) | 32 | 1.56 (≈ 2.65 µg/mL) | 3.13 (≈ 5.32 µg/mL) | 128 | 31 ± 9 | 5.6 ± 0.6 | 94 ± 12 | 44 | 0.20 (≈ 0.34 µg/mL) | 4 | 0.78 (≈ 1.33 µg/mL) | 8 | 1.56 (≈ 2.65 µg/mL) | 64 | 4 | MIC [13]: 0.20 µM (≈ 0.34 µg/mL); MIC-fold improvement vs. vancomycin [14]: 2; MIC [14]: 0.39 µM (≈ 0.663 µg/mL); MIC-fold improvement vs. vancomycin [15]: 4; MIC [15]: 0.20 µM (≈ 0.34 µg/mL); MIC-fold improvement vs. vancomycin [16]: 8; MIC [16]: 0.10 µM (≈ 0.17 µg/mL)
